Results on 7 compounds are retold here after US20060128667A1, “Hydroxyphosphonates and phosphonophosphates as apolipoprotein e modulators” (priority 2002, published 2006).

Molecules are shown by their SMILES. Read-outs that look alike come from different tables or passages of the source.

In the test the test system is apoE secretion by THP-1 cell line. The test is classed as cell-based, human. The settings on record: THP-1 cells, 3 days. From the text:
The hydroxyphosphonates (Ia) and phosphonophosphates (Ib) of the invention can modulate (increase or decrease) the apoE production in plasma and in tissues. The activities of the compounds can be determined in an in vitro cell assay consisting in determining the effect of the test compound in modulating the secretion of apoE by an apoE secreting cell line (e.g., a monocyte-macrophage cell line such as the THP-1 cell line; a liver derived cell line such as the HepG2 cell line, an intestinal derived cell line such as the CaCo2 cell line or a brain derived cell line such as the astrocytoma CCF-STTG1 cell line).
THP-1 cell line (ATCC TIB-202) are cultured in RPMI 1640 (with 2 mM of L-glutamine and 2 g/l of glucose, Invitrogen) supplemented with 2 g/l of sodium hydrogen carbonate (Fluka), 10 U/ml of penicillin, 10 μg/ml of streptomycin (Penicillin-Streptomycin, Invitrogen), 20 μM of 2-mercaptoethanol (Fluka) and 10% FCS (Amimed). Cells are incubated at 37° C. and 5% CO2.
Cells are seeded in 24 well tissue culture plates (Falcon), 2×10^5 cells in 500 μl of culture medium per well or 6 well plates for RT-PCR purpose, 1×10^6 cells in 2.5 ml of medium. PMA (Phorbol 12-myristate 13-acetate, Alexis), (stock in DMSO (Fluka) at 1 mg/ml) and other compounds are diluted in ethanol and added to the cells at an ethanol final concentration not exceeding 1%. Same volume of ethanol is added in controls. Plates are incubated for 3 days at 37° C. and 5% CO2 to allow cell differentiation and apoE secretion.
Medium contained in the wells is harvested and centrifuged 5 min at 1200 rpm. Supernatants are store at −20° C. until apoE quantification. The cell pellets are resuspended in PBS and counted with a Z1 Coulter Counter. After a wash with PBS, adherent cells in the well bottoms are detached with trypsin-EDTA solution 10× (Invitrogen) diluted in PBS. The reaction is stopped with the addition of culture medium and the detached cells are counted.
ApoE was quantified by ELISA. 96 well plates (Costar) are coated with 5% of gelatine (from porcine skin, Fluka) in carbonate-bicarbonate buffer (Sigma) for 1 hour at 37° C. After removing the coating solution, 100 μl of THP-1 supernatant are added per well, diluted 5 times in buffer (PBS, 1% Top-Block (Juro), 0.1% Tween 20 (Fluka)). The incubation last 1 hour at 37° C., then the wells are washed 3 times with 200 μl of buffer. Plates are incubated for 1 hour at 37° C. with continuous stirring with the primary antibody (goat anti-human apoE IgG, Calbiochem) at a 10000-time dilution in buffer, 100 μl per well. After 3 washes, plates are incubated with the secondary antibody (rabbit anti-goat-IgG peroxidase conjugated, Sigma) diluted 5000 times, 100 μl per well, at 37° C. with shaking. Then the wells are washed 5 more times and the detection is achieved by adding 100 μl per well of o-phenylenediamine dihydrochloride (Sigma) and incubated for 15-20 minutes with shaking at room temperature. When the appropriated colour is reached, the reaction is stopped by adding 50 μl per well of 3 M sulfuric acid (Fluka) with shaking for 1 minute at room temperature. The absorbance is read at 492 nm versus 620 nm with a microplate photometer (Anthos Reader 2001).

`CCOP(=O)(OCC)OC(c1cccc(OCc2cccnc2)c1)P(=O)(OCC)OCC` (stereo not drawn) [Dietbyl 1-(diethoxy-phosphinyloxy)-1-[3-(pyridin-3-yl-methoxy)-phenyl]-methylphosphonate]: the “% ApoE Change” value (compound 25 μM, 1.25 nM PMA) came to 52%; the “% ApoE Change” value (compound 25 μM, 2.5 nM PMA) was determined as 15%; the “% ApoE Change” value (compound 50 μM, 1.25 nM PMA) is reported as 551%; the “% ApoE Change” value (compound 50 μM, 2.5 nM PMA) turned out to be 6%; the “% ApoE Change” value (compound 100 μM, 1.25 nM PMA) was determined as 1351%; the “% ApoE Change” value (compound 100 μM, 2.5 nM PMA) is recorded as 98%.
On to `CCOP(=O)(OCC)OC(c1ccc(-c2ccccc2)cc1)P(=O)(OCC)OCC` (stereo not drawn) [Diethyl 1-(diethoxy-phosphinyloxy)-1-(biphenyl-4-yl)-methyiphosphonate], for which the “% ApoE Change” value (compound 25 μM, 1.25 nM PMA) was determined as 172%; the “% ApoE Change” value (compound 25 μM, 2.5 nM PMA) is reported as 138%; the “% ApoE Change” value (compound 50 μM, 1.25 nM PMA) is 198%; the “% ApoE Change” value (compound 50 μM, 2.5 nM PMA) is on record as 119%; the “% ApoE Change” value (compound 100 μM, 1.25 nM PMA) is 142%; the “% ApoE Change” value (compound 100 μM, 2.5 nM PMA) turned out to be 71%.
In the case of `CCOP(=O)(OCC)OC(c1cccc(OCCCCCN2C(=O)c3ccccc3C2=O)c1)P(=O)(OCC)OCC` (stereo not drawn) [Diethyl 1-(diethoxy-phosphinyloxy)-1-[3-(5-N-phthalimido-pentoxy)-phenyl]-methylphosphonate], the “% ApoE Change” value by setting is: (compound 25 μM, 1.25 nM PMA) 3375%; (compound 25 μM, 2.5 nM PMA) 1196%; (compound 50 μM, 1.25 nM PMA) 1526%; (compound 50 μM, 2.5 nM PMA) 310%; (compound 100 μM, 1.25 nM PMA) −93%; (compound 100 μM, 2.5 nM PMA) −92%.
Take `CCOP(=O)(OCC)OC(c1cc(OC)c2c(c1)OCO2)P(=O)(OCC)OCC` (stereo not drawn) [Diethyl 1-(diethoxy-phosphinyloxy)-1-[4-(3-methoxy-4,5-methylenedioxy)-phenyl]-methylphosphonate]: the “% ApoE Change” value (compound 25 μM, 1.25 nM PMA) was −19%; the “% ApoE Change” value (compound 25 μM, 2.5 nM PMA) was 7%; the “% ApoE Change” value (compound 50 μM, 1.25 nM PMA) amounted to 3%; the “% ApoE Change” value (compound 50 μM, 2.5 nM PMA) is given as −5%; the “% ApoE Change” value (compound 100 μM, 1.25 nM PMA) is on record as 33%; the “% ApoE Change” value (compound 100 μM, 2.5 nM PMA) came to 40%.
Turning to `CCOP(=O)(OCC)OC(c1ccc(OCc2cccnc2)cc1)P(=O)(OCC)OCC` (stereo not drawn) [Diethyl 1-(diethoxy-phosphinyloxy)-1-[4-(pyridin-3-yl-methoxy)-pheny]-methylphosphonate], the “% ApoE Change” value by setting is: (compound 25 μM, 1.25 nM PMA) 95%; (compound 25 μM, 2.5 nM PMA) 179%; (compound 50 μM, 1.25 nM PMA) 189%; (compound 50 μM, 2.5 nM PMA) 245%; (compound 100 μM, 1.25 nM PMA) 535%; (compound 100 μM, 2.5 nM PMA) 434%.
In the case of `CCOP(=O)(OCC)C(O)c1ccc(OCc2ccccn2)cc1` (stereo not drawn) [Diethyl 1-hydroxy-1-[4-(pyridin-2-yl-methoxy)-phenyl]-methlyphosphonate], the “% ApoE Change” value is listed as −9% (compound 25 μM, 1.25 nM PMA); 0% (compound 25 μM, 2.5 nM PMA); 24% (compound 50 μM, 1.25 nM PMA); 3% (compound 50 μM, 2.5 nM PMA); 76% (compound 100 μM, 1.25 nM PMA); 100% (compound 100 μM, 2.5 nM PMA).
Turning to `CCOP(=O)(OCC)C(O)c1ccc(OCCCN2C(=O)c3ccccc3C2=O)cc1` (stereo not drawn) [Diethyl 1-hydroxy-1-{4-[3-N-phthalimido-propoxy]-phenyl}-methylphosphonate], the “% ApoE Change” value runs as follows: (compound 25 μM, 1.25 nM PMA) 543%; (compound 25 μM, 2.5 nM PMA) 304%; (compound 50 μM, 1.25 nM PMA) 961%; (compound 50 μM, 2.5 nM PMA) 396%; (compound 100 μM, 1.25 nM PMA) 1436%; (compound 100 μM, 2.5 nM PMA) 465%.
